System: LPS-induced TNFα production
Experiment: LPS-induced TNFα production in rats
Format: in vivo
Conditions: Rattus norvegicus, po, pretreated orally
Description: Male Lewis rats (180-200 g) from Charles River Breeding Laboratories (Portage) ACUC Protocol#05051 were pretreated orally with compound or vehicle. After a determined pretreatment time, the rats were given LPS (lipopolysaccharide from Escherichia coli Serotype 055-B5, Sigma Chemical Co., St Louis, Mo.) 30 μg/rat in 0.5 ml saline, intraperitoneally. The rats were euthanized by CO2 inhalation 90 minutes after the LPS injection and blood samples were collected by cardiac puncture, transferred into heparinized tubes and stored on ice. The blood samples were centrifuged at 2000 rpm for 10 minutes and the plasma collected for analysis by specific ELISA for TNFα levels.
The plasma samples were assayed for TNFα according to manufactures specifications. TNFα levels were expressed as pg/ml. Elisa kits were purchased from R&D Systems Inc. (Rat TNFα Quantikine Kit Catalog#RTA00).

`O=S(=O)(NCCO)c1ccc(-c2ccnc3[nH]c(C4CC4)cc23)cc1` [Example 145a, 4-(2-Cyclopropyl-1H-pyrrolo[2,3-b]pyridin-4-yl)-N-(2-hydroxyethyl)-benzenesulfonamide] showed an ED50 of less than 20 mg/kg.
